Patent publication US20080293583A1, “Methods for diagnosing mood disorders” (Wyeth, priority 2003, published 2008)

Legend:
Format in all cases: in vivo
[1] = test system: Probasin precursor (lipocalin family member); experiment: 2-DE proteome analysis of rat hippocampus: Probasin precursor; settings: rat hippocampus cytosolic extract, 10 mg/kg i.p. daily 14 days, vs control; gel spot 70
Protocol: (§1) Animal dosing. Adult male Sprague Dawley rats weighing 230-320 g were housed with ad libitum access to food and water. After 1 week of habituation, rats were administered either an antidepressant or vehicle alone. The following drugs were administered intraperitoneally (i.p.): fluoxetine (10 mg/kg daily), venlafaxine (10 mg/kg daily) or vehicle alone (1 ml/kg normal saline daily) for 14 days (n=3 rats per group).
(§2) Sample preparation and cytosolic protein extraction. The animals were euthanized and hippocampi were rapidly dissected from the whole brain. Samples from each treatment group were pooled and stored at −85° C. Cytosolic extracts were prepared using the universal extraction kit from Sigma (prot-two) as follows: soluble cytoplasmic extraction reagent (S2688) was added to the hippocampal tissue (10 ml/250 mg wet weight). […]
(§3) Two-dimensional gel electrophoresis. […] Molecular masses were determined by running standard protein markers (Genomic Solutions Inc.), covering the range 10-200 kDa as well as internal verification via landmark proteins within the gel. […]
(§4) Protein fixation, silver staining and 2-D gel comparisons. […] Protein spots were outlined (first automatically and then manually) and quantified using the HT analyzer v2.2 software (Genomic Solutions Inc.). The software calculated the relative spot volume of the proteins compared with the total amount of protein in the gel. […]

[2] = test system: NG, NG-Dimethylarginine Dimethylaminohydrolase 1 (DDAH1); experiment: 2-DE proteome analysis of rat hippocampus: DDAH1; settings: rat hippocampus cytosolic extract, 10 mg/kg i.p. daily 14 days, vs control; gel spot 18
Protocol: as §1, §2, §3, §4

[3] = test system: Serine Protease Inhibitor 2.1 (SPI-2.1); experiment: 2-DE proteome analysis of rat hippocampus: SPI-2.1; settings: rat hippocampus cytosolic extract, 10 mg/kg i.p. daily 14 days, vs control; gel spot 62
Protocol: as §1, §2, §3, §4

[4] = test system: Cytochrome C oxidase polypeptide VB, mitochondrial precursor (COX5B); experiment: 2-DE proteome analysis of rat hippocampus: COX5B; settings: rat hippocampus cytosolic extract, 10 mg/kg i.p. daily 14 days, vs control; gel spot 86
Protocol: as §1, §2, §3, §4

[5] = test system: Transcription factor BTEB 1; experiment: 2-DE proteome analysis of rat hippocampus: BTEB 1; settings: rat hippocampus cytosolic extract, 10 mg/kg i.p. daily 14 days, vs control; gel spot 19
Protocol: as §1, §2, §3, §4

[6] = test system: L-Lactate Dehydrogenase B Chain; experiment: 2-DE proteome analysis of rat hippocampus: L-Lactate Dehydrogenase B Chain; settings: rat hippocampus cytosolic extract, 10 mg/kg i.p. daily 14 days, vs control; gel spot 23
Protocol: as §1, §2, §3, §4

[7] = test system: Glutathione S-Transferase Yb3; experiment: 2-DE proteome analysis of rat hippocampus: Glutathione S-Transferase Yb3; settings: rat hippocampus cytosolic extract, 10 mg/kg i.p. daily 14 days, vs control; gel spot 56
Protocol: as §1, §2, §3, §4

[8] = test system: Adenine Phosphoribosyltransferase (APRT); experiment: 2-DE proteome analysis of rat hippocampus: APRT; settings: rat hippocampus cytosolic extract, 10 mg/kg i.p. daily 14 days, vs control; gel spot 57
Protocol: as §1, §2, §3, §4

[9] = test system: Ras-related protein RAB-1B; experiment: 2-DE proteome analysis of rat hippocampus: RAB-1B; settings: rat hippocampus cytosolic extract, 10 mg/kg i.p. daily 14 days, vs control; gel spot 90 (mix)
Protocol: as §1, §2, §3, §4

[10] = test system: Alpha-enolase; experiment: 2-DE proteome analysis of rat hippocampus: Alpha-enolase; settings: rat hippocampus cytosolic extract, 10 mg/kg i.p. daily 14 days, vs control; for Fold change, Alpha-enolase (spot 8): gel spot 8; for Fold change, Alpha-enolase (spot 9): gel spot 9; for Fold change, Alpha-enolase (spot 10): gel spot 10
Protocol: as §1
Sample preparation and cytosolic protein extraction. The animals were euthanized and hippocampi were rapidly dissected from the whole brain. Samples from each treatment group were pooled and stored at −85° C. Cytosolic extracts were prepared using the universal extraction kit from Sigma (prot-two) as follows: soluble cytoplasmic extraction reagent (S2688) was added to the hippocampal tissue (10 ml/250 mg wet weight). Samples were sonicated (4 times at 30 seconds) and centrifuged for 45 minutes (14,000 g) at 4° C. The supernatant was decanted and stored on ice. Ten milliliters of the soluble cytoplasmic extraction reagent was added to the remaining pellet and the sonication and centrifugation steps were repeated. The supernatant was decanted, combined with the previous supernatant and SpeedVac (Savant Instruments, Halbrook, N.Y.) dried. Each sample was dissolved in 2 ml of 2-D lysis buffer (6 M urea, 2 M thiourea, 4% CHAPS, 40 mM Tris, 65 mM dithiothreitol (DTT), 1 mM sodium vanadate, 1 mM sodium fluoride, protease inhibitor tablet (#1836145, Roche)), concentrated and desalted (Centricon tube; 6500 rpm) at 10° C. for 12 hours.
Two-dimensional gel electrophoresis. First dimensional isoelectric focusing (IEF) was performed on 18 cm IPG strips (pH 4-7) using an IPGphor unit (Amersham Pharmacia). Each strip was rehydrated for 16 hours with sample lysate (˜500 ug) in a final volume of 400 uL of IEF solution (10 uL of bromophenol blue (0.25% w/v); 2 uL of Ampholyte (pH 4-7, Amersham #17-6000-86); 2-D lysis buffer). […] The strips were then subjected to a two-step equilibration (50 mM Tris; 2% SDS; 30% glycerol) in (A) 0.5% DTT (Bio-Rad) and (B) 4.5% iodoacetamide (Sigma) buffers before proceeding to SDS-PAGE. Separation in the second dimension was performed on 10% SDS polyacrylamide gels (180×1.5 mm) at a constant voltage of 500 V at 15° C. for 28 hours using an Investigator 2D electrophoresis unit (Genomic Solutions Inc., MA) which accommodated 10 gels. Molecular masses were determined by running standard protein markers (Genomic Solutions Inc.), covering the range 10-200 kDa as well as internal verification via landmark proteins within the gel. The pl values were used as given by the supplier of the immobilized pH-gradient strips.
Protein fixation, silver staining and 2-D gel comparisons. Silver staining of the gels was performed using a silver stain kit (gs#80-0183; Genomic Solutions). All steps were performed at room temperature, gently agitating the trays on a rotary shaker at low speed. Stained gels were scanned using an 8-bit ccd camera and the Investigator G3 ProPic system (Genomic Solutions Inc.). Protein spots were outlined (first automatically and then manually) and quantified using the HT analyzer v2.2 software (Genomic Solutions Inc.). The software calculated the relative spot volume of the proteins compared with the total amount of protein in the gel. The HT analyzer software was used to cross-match (‘synchronize’) and identify protein spots between control gels and drug treatment gels that were different in integrated intensity by at least a factor of 1.5 versus control. […] This population of spots were automatically picked from each gel with the ProPic system for in-gel trypsin digestion.
Enzymatic digestion of protein spots. Silver-stained protein spots were automatically excised and transferred to a 96-well polypropylene microtiter plate. Each excised spot was de-stained to remove the silver ions and enhance sensitivity with 30 mM potassium ferricyanide and 100 mM sodium thiosulfate (1:1 ratio). […]

[11] = test system: GLIA maturation factor beta (GMF-β); experiment: 2-DE proteome analysis of rat hippocampus: GMF-β; settings: rat hippocampus cytosolic extract, 10 mg/kg i.p. daily 14 days, vs control; gel spot 67
Protocol: as §1, §2, §3, §4

[12] = test system: 40 S ribosomal protein S 19; experiment: 2-DE proteome analysis of rat hippocampus: ribosomal protein S 19; settings: rat hippocampus cytosolic extract, 10 mg/kg i.p. daily 14 days, vs control; gel spot 72
Protocol: as §1, §2, §3, §4

[13] = test system: Lymphotactin [precursor] (Cytokine SCM-1; Small inducible cytokine C1); experiment: 2-DE proteome analysis of rat hippocampus: Lymphotactin; settings: rat hippocampus cytosolic extract, 10 mg/kg i.p. daily 14 days, vs control; gel spot 80
Protocol: as §1, §2, §3, §4

[14] = test system: 10 KD heat shock protein, mitochondrial (Hsp10); experiment: 2-DE proteome analysis of rat hippocampus: Hsp10; settings: rat hippocampus cytosolic extract, 10 mg/kg i.p. daily 14 days, vs control; gel spot 83
Protocol: as §1, §2, §3, §4

| SMILES | Fold change, Probasin precursor [1] [Fold change] | Fold change, NG, NG-Dimethylarginine Dimethylaminohydrolase 1 (DDAH1) [2] [Fold change] | Fold change, Serine Protease Inhibitor 2.1 (SPI-2.1) [3] [Fold change] | Fold change, Cytochrome C oxidase polypeptide VB (COX5B) [4] [Fold change] | Fold change, Transcription factor BTEB 1 [5] [Fold change] | Fold change, L-Lactate Dehydrogenase B Chain [6] [Fold change] | Fold change, Glutathione S-Transferase Yb3 [7] [Fold change] | Fold change, Adenine Phosphoribosyltransferase (APRT) [8] [Fold change] | Fold change, Ras-related protein RAB-1B [9] [Fold change] | Fold change, Alpha-enolase (spot 8) [10] [Fold change] | Fold change, Alpha-enolase (spot 9) [10] [Fold change] | Fold change, Alpha-enolase (spot 10) [10] [Fold change] | Fold change, GLIA maturation factor beta (GMF-β) [11] [Fold change] | Fold change, 40 S ribosomal protein S 19 [12] [Fold change] | Fold change, Lymphotactin [precursor] [13] [Fold change] | Fold change, 10 KD heat shock protein, mitochondrial (Hsp10) [14] [Fold change] |
| --- | --- | --- | --- | --- | --- | --- | --- | --- | --- | --- | --- | --- | --- | --- | --- | --- |
| CNCCC(Oc1ccc(C(F)(F)F)cc1)c1ccccc1 (centres unmarked) [Fluoxetine, fluoxetine] | 2.7 | 1.6 | 2.9 | 3.2 | 1.6 | 2.5 | 0.5 | 5.8 | 1.5 | 3.4 | 5 | 3 | 3 | 2 | 2 | 2.3 |
| COc1ccc(C(CN(C)C)C2(O)CCCCC2)cc1 (centres unmarked) [Venlafaxine, venlafaxine] | 2.7 | 2.2 | 1.9 | 4 | 2.3 | 2.5 | 0.5 | 3 | 1.5 | 2 | 4.8 | 4.1 | 2.7 | 1.8 | 1.9 | 3.8 |
